Laboratory results reported in patent publication US20020155172A1, “Methods and compounds for decreasing cell toxicity or death” (priority 2000, published 2002).
Peptide text beside a SMILES is read from it. * marks the point of attachment. Cbz = O=C(OCc1ccccc1)*; CH2F = FC*

How the values were obtained:
Type in all cases: cell-based
[1] = system: Q79 transiently transfected HeLa cells; assay: Cell protective effects by ATP depletion tests and luciferase activity analysis; details: 5 μM or 25μM of the test compound
Experimental: (§1) A high-throughput method for identifying compounds that decrease cell toxicity or death has been designed. In this method, cells were seeded at 2×10^5 cells in 100 mm dishes. The next day the plated cells were transiently transfected with a plasmid encoding an expanded polyglutamine repeat, for example, Q79. Three hours later, transfection efficiency was assessed. Plates containing cells having 10-20% transfection efficiency at this 3 hour time point were trypsinized and re-plated at 600 or at 1500 cells per well in 384 well plates with clear bottoms. After 6 hours, the candidate compounds were added to the multi-well plates. The cells were cultured for 48 hours and ATP levels were determined using an ATPLite™ kit. Data was then expressed in either arbitrary units, or as relative ratio of ATP levels in Q79 transfected cells in compound-treated relative to vehicle-treated samples.
The structures and ChemBridge library product numbers for the compounds that tested positively in the ATP depletion assays and luciferase assays are shown in FIGS. 14A-14L. In addition, derivatives of some of the identified compounds, as shown in FIGS. 14A-14F, were identified and tested for their cell protective effects, as assayed by ATP depletion tests and luciferase activity analysis after administration of Q79 transiently transfected HeLa cells with 5 μM or 25μM of the test compound. […]

[2] = system: HeLa cells transfected with Q79-GFP; assay: Cellular ATP levels (ATPLite) in Q79 expressing HeLa cells; details: Q79-GFP, assayed 48 hours after transfection
Experimental: We also investigated whether Congo red prevented other cellular events during cell death, including ATP depletion, caspase activation, and protein synthesis inhibition. HeLa cells were transfected with the Q79-GFP construct. Forty-eight hours later, the viability of cells expressing expanded polyglutamine repeats was determined by measuring cellular ATP levels, suing an ATPLite™ kit, according to the directions provided by the manufacturer (Packard, Co.) (FIG. 5A).
To determine the effect of Congo red (100 μM) on polyglutamine-induced cell toxicity. HeLa cells were transiently transfected with Q79-GFP, and six hours later were administered various concentrations of Congo red. Cell viability was assayed 72 hours after transfection, by measuring the level of ATP in each sample. ATP levels in cells expressing Q79 were determined by using the ATPLite™ kit as recommended by the manufacturer (Packard, Inc.). Briefly, cells were transfected with Q79 and treated 6 hours after transfection. Forty-two hours later, the levels of ATP were determined. (FIG. 5C).
as §1
Derivatives of Congo red (commercially available from Sigma/Aldrich) were tested for their ability to alter cell toxicity and death by measuring ATP depletion and luciferase expression. The assay was carried out as described above for the high-throughput identification of compounds. Briefly, HeLa cells were transiently transfected with a Q79/GFP plasmid and were subsequently treated with various concentrations of Congo red, or 25 μM of each of Direct Orange 6, Direct Red 1, Direct Orange 1, Direct Black 51, Direct Orange 8, Direct Yellow 26, Direct Yellow 28, or Direct Blue 158. Drug treatment continued for 6 hours and then 48 hours later, ATP levels were measured in these cells and compared to the ATP levels in cells that were transiently transfected with GFP only, and also received the compound.

[3] = system: HeLa cells expressing Q79 expanded polyglutamine repeats; assay: Cell death induced by TNF-α/CHX, Fas/CHX or H2O2; details: 100 μM, one hour before the inducing agent; cell death 48 hours later
Experimental: FIG. 5F is a graph of the effects of Congo red, ZVAD, or vehicle (NT) on cell death when the cells are induced to die by receptor mediated pathways (TNF-α/cycloheximide (CHX), Fas/cycloheximide (CHX)), or necrosis (hydrogen peroxide).
HeLa cells expressing Q79 expanded polyglutamine repeats were treated with 100 μM Congo red, or 100 μM ZVAD (a positive control) for one hour prior to the addition of the apoptosis-inducing agent, and cell death was determined 48 hours later. […] Finally we tested whether Congo red can inhibit apoptosis induced by overexpression of caspase-1, -8, or -11.

[4] = system: non-transfected HeLa cells; assay: Total cellular protein degradation; details: Congo red 100 μM, ZVAD 100 μM, MG132 10 μM; H3-tyrosine release, 0 to 180 minutes
Experimental: FIG. 8C is a graph of the effect of effect of Congo red, ZVAD, or the proteosome inhibitor MG132 on total cellular protein degradation in non-transfected HeLa cells.
To rule out the possibility that Congo red may have an effect on protein degradation in general, we tested the effect of Congo red on proteosome degradation. Rates of total cellular protein degradation experiments, from cells seeded in 12 well dishes at 2×10^4, treated with Congo red (100 μM), ZVAD (100 μM), or the proteosome inhibitor MG132 (10 μM) and labeled with 5 μCi/ml of H^3-tyrosine for 1 hour. One hundred microliter culture medium aliquots were collected at 0, 30, 60, 90, 120, and 180 minute time points, and the levels of H^3-tyrosine were determined using an LS6000 scintillation counter (Beckman, Co).

CC(=O)Nc1ccc(-c2ccc(NC(C)=O)cc2)cc1 [PQIG]
cell protective effect (ATP depletion tests and luciferase activity analysis) [1]: cytoprotective

COC(=O)C[C@H](NC(=O)[C@H](C)NC(=O)[C@@H](NC(=O)OCc1ccccc1)C(C)C)C(=O)CF [ZVAD, reference compound] (Cbz-Val-Ala-Asp(OMe)-CH2F)
ATP depletion upon expanded polyglutamine expression [2]: inhibited | cell death induced by TNF-α/CHX, Fas/CHX, or H2O2 [3]: effective in inhibiting both TNF-α- and Fas-induced apoptosis | general protein degradation [4]: neither Congo red nor ZVAD had any effect

C/C(=N\NC(=S)N1CCCCC1)c1ccccc1 [PQIB]
cell protective effect (ATP depletion tests and luciferase activity analysis) [1]: cytoprotective
